From patent US10596254B2 (priority 2003, dated 2020) come the findings set out here.

Data set [1] relates to recombinant vaccinia virus expressing the HIV-pol gene. On the set-up: species or system mice. The following applies: mouse, in vivo.
For data set [2], the system named is targets labeled with I9V peptide. Put plainly: Chromium release assay of immune splenocytes from immunized HLA A2/Kb mice, I9V-loaded targets. The following applies: two doses of 50 nmoles; E:T ratio of 100. In kind it is in vivo. As to the method:
Fourteen days later, the spleens were retrieved. The CTL responses of the immune splenocytes were tested after one round of in vitro stimulation (IVS). […] […]. […] This experiment was repeated four times with similar results each time. Using a two-tailed T test, there was a significant difference of P<0.03 at all E:T ratios. […].
[…]; SEQ ID NO:10). See Hartmann et al., J. Immunol. 164:1617-1624, 2000. The chemical yield and purity of this conjugate were similar to the others synthesized above using CpG 1826 (murine). […] […] The CpG-ODN used in Conjugate 10 also is known under the trade names ProMune™ or Vaxmune™ (Coley Pharmaceutical Group).

In another data set the test system is I9V-loaded JA2 cells. Put plainly: Chromium release assay, cells from immunized HHD II mice, I9V-loaded JA2 targets. The format is in vivo. The following applies: three mice each. The source says:
HHD II mice were immunized with 1 nmole of either Conjugate 7 or Conjugate 3 (which is the same as Conjugate 7 but also contains PADRE). […].
To address whether the defect in Conjugate 7 immunogenicity was the missing PADRE TH epitope, immunizations with Conjugate 7 plus PADRE TH were compared to immunizations with Conjugate 7 alone. […]. […] Further, the majority of the stimulating activity of the PADRE epitope is caused by the sequence itself, rather than the artificial junction caused by chimerizing the CTL and TH epitopes, since Conjugate 3 and Conjugate 7 plus PADRE in trans have similar immunogenicity. Similar fusion peptides, including a fusion peptide composed of PADRE and an HPV-specific CTL epitope, have been administered to volunteers and women with cervical neoplasia without causing observable autoimmunity

Data set [3] can be described thus: fmoc spps; Wang resin (substitution about 0.8 mmole/g), Novabiochem; HBTU/DIEA. The following applies: conjugation step, scale approximately 0.22 mmole (0.4 g Fmoc-AA-Wang resin); for final hplc purity: Method B, 260 nm.

Square brackets hold non-standard residues; d marks the D form. Ends that are not written are not given here. Cha = N[C@@H](CC1CCCCC1)C(=O)O

As for “AKXVAAWTLKAAAILKEPVHGV, X = cyclohexylalanine (AK[Cha]VAAWTLKAAAILKEPVHGV) [PADRE:I9V fusion peptide]”, the “protection against viral challenge” value in data set [1] is given as “equivalently unprotected”. In data set [2], the target cell lysis turned out to be 8%. Moreover, in the data set on I9V-loaded JA2 cells, the “immunogenicity (chromium release)” value is reported as “little immunogenicity”.
On to KSS:PADRE:S9L + Oligo 3, for which, in data set [3], the final hplc purity result is “about 70-80% pure” and the step mass entry is “About 6.0 mg”.
Consider PADRE:I9V:N:S9L + Oligo 3, for which, in data set [3], the final hplc purity is reported as 70-80% pure and the step mass entry is recorded as “About 8.0 mg”.
